Reference: ChEMBL document CHEMBL1142799, “Comparison of different heterocyclic scaffolds as substrate analog PDE5 inhibitors” (Bioorg Med Chem Lett, 2005)

Assays:
Phosphodiesterase 1 = Phosphodiesterase 1 (Homo sapiens, UniProt P54750+Q01064+Q14123); assay: Inhibition of phosphodiesterase 1; assay type: protein assay
[1] = target: cGMP-specific 3',5'-cyclic phosphodiesterase (Homo sapiens, UniProt O76074)
Description: Inhibition of phosphodiesterase 5

IC50 (Phosphodiesterase 1) [nM]	IC50 [1] [nM]	SMILES
30	5	CCOc1ccccc1-c1nc(O)c2c(C)nc(C3CCCC3)n2n1
–	10	CCCn1cnc2c(O)nc(-c3cc(S(=O)(=O)N4CCN(C)CC4)ccc3OCC)nc21
50	200	CCOc1ccccc1-c1nc(O)c2nnc(C3CCCC3)n2n1
1000	200	CCOc1ccccc1-c1nc(O)c2c(C)nc(C)n2n1
> 1000	7	CCOc1ccc(S(=O)(=O)N2CCN(C)CC2)cc1-c1nc(O)c2c(CC)nc(C3CCCC3)n2n1
10	–	CCCn1cnc2c(O)nc(-c3ccccc3OCC)nc21
500	10	CCCc1nc(C)n2c(O)nc(-c3cc(S(=O)(=O)N4CCN(C)CC4)ccc3OCC)nc12
300	–	CCCc1nc(C)c2c(=O)[nH]c(-c3ccccc3OCC)nn12
1000	300	CCOc1ccccc1-c1nc(O)c2ncn(C3CC3)c2n1
1000	100	CCOc1ccccc1-c1nc(O)c2ncn(C3CCC3)c2n1
10	1	CCOc1ccc(S(=O)(=O)N2CCN(C)CC2)cc1-c1nc(O)c2c(C)nc(C3CCCC3)n2n1
–	1	CCCn1nc(C)c2c(=O)[nH]c(-c3ccccc3OCC)nc21
800	500	CCOc1ccccc1-c1nc(O)c2nnn(C3CCCC3)c2n1
–	300	CCCn1nnc2c(O)nc(-c3ccccc3OCC)nc21
790	–	CCCc1nn(C)c2c(=O)[nH]c(-c3ccccc3OCC)nc12

The next lines start with the compound.

SMILES	IC50 (Phosphodiesterase 1) [nM]	IC50 [1] [nM]
CCCc1nc(C)c2c(=O)[nH]c(-c3cc(S(=O)(=O)N4CCN(C)CC4)ccc3OCC)nn12	300	–
CCOc1ccccc1-c1nc(O)n2c(C)nc(C3CCCC3)c2n1	40	20
CCOc1ccc(S(=O)(=O)N2CCN(CCO)CC2)cc1-c1nc(O)c2nnc(C3CCCC3)n2n1	50	50
CCCc1nc(C)c2c(O)nc(-c3cc(S(=O)(=O)N4CCN(CCO)CC4)ccc3OCC)nn12	20	5
CCOc1ccc(S(=O)(=O)N2CCN(CCO)CC2)cc1-c1nc(O)c2c(C)nc(C)n2n1	1000	10
CCOc1ccc(S(=O)(=O)N2CCN(C)CC2)cc1-c1nc2c(c(CC)nn2C2CCCC2)c(=O)[nH]1	> 1000	40
CCOc1ccc(S(=O)(=O)N2CCN(CCO)CC2)cc1-c1nc(O)n2c(C)nc(C3CCCC3)c2n1	30	10
CCCn1nc(C)c2c(=O)[nH]c(-c3cc(S(=O)(=O)N4CCN(C)CC4)ccc3OCC)nc21	1000	8
CCOc1ccc(S(=O)(=O)N2CCN(CCO)CC2)cc1-c1nc(O)c2onc(C3CCCC3)c2n1	30	10
CCCc1n[nH]c2c(O)nc(-c3ccccc3OCC)nc12	–	50
CCOc1ccccc1-c1nc(O)c2onc(C3CCCC3)c2n1	200	20
CCOc1ccccc1-c1nc(O)c2ncn(C3CCCC3)c2n1	500	50
CCCn1nc(CC)c2c(=O)[nH]c(-c3cc(S(=O)(=O)N4CCN(C)CC4)ccc3OCC)nc21	> 1000	20
CCOc1ccc(S(=O)(=O)N2CCN(CCO)CC2)cc1-c1nc(O)c2c(C)nc(C3CCCC3)n2n1	10	1
CCCc1nc(CC)c2c(O)nc(-c3cc(S(=O)(=O)N4CCN(C)CC4)ccc3OCC)nn12	> 1000	8
CCOc1ccc(S(=O)(=O)N2CCN(CCO)CC2)cc1-c1nc(O)c2c(n1)c(C1CCCC1)nn2C	10	5
CCCc1nc(C)n2c(O)nc(-c3ccccc3OCC)nc12	200	40
